# Measured values taken from patent publication EP1151753B1, “PREVENTIVE AND THERAPEUTIC AGENTS FOR ARTERIOSCLEROSIS” (CCI CORPORATION, priority 1999, dated 2000).
# Columns and labels:
# WHHL rabbit model = experiment: Evaluation of morbid alteration of aorta (Sudan dyeing), WHHL rabbit model; format: in vivo, WHHL type rabbits; settings: WHHL rabbits
# From the text: 1. Animal used and feeding conditions In the test, female and male WHHL type rabbits (SPF: Kitayama Labels K.K.) which were eight weeks old at the time of arrival at the laboratory were subjected to quarantine and domestication and visually inspected as to the general condition and, after the absence of abnormality was confirmed, put to use. The body weights at the time of starting administration (at the age of nine weeks) were in the range of 1.5 - 1.9 kg in the case of male rabbits and in the range of 1.4 - 1.8 kg in the case of female rabbits. Throughout the entire duration of the test, the animals were raised as accommodated one each in hanger cages of aluminum installed on a stainless steel rack inside a clean feeding chamber set at a temperature in the range of 20 - 26°, a relative humidity in the range of 40 - 70%, a number of ventilations in the range of 10 - 20 turns/hour, and an illumination time within the range of 12 hours (7.00 - 19:00). […] The blood was centrifuged to separate blood serum and the blood serum was analyzed for the items shown in Table 5 by the use of an automatic analyzer (made by Hitachi. Ltd. and sold under the product code of "736-20"). The body weight of each rabbit was measured at the rate of once a week throughout the entire duration of the administration. […]
# [1] = Lipoprotein analysis, cholesterol-loaded rabbit model; format: in vivo, New Zealand White (NZW) type rabbits; settings: cholesterol-loaded NZW rabbits
# From the text: In the test, female and male New Zealand White (NZW) type rabbits (SPF: Kitayama Labels K.K.) which were seven weeks old at the time of arrival at the laboratory were subjected to quarantine and two weeks' domestication and visually inspected as to the general condition and, after the absence of abnormality was confirmed, put to use. The body weights at the time of starting administration (at the age of nine weeks) were in the range of 1.8 - 2.2 kg in the case of male rabbits and in the range of 1.6 - 2.0 kg in the case of female rabbits. Throughout the entire duration of the test, the animals were raised as accommodated one each in hanger cages of aluminum installed on a stainless steel rack inside a clean feeding chamber set at a temperature in the range of 20 - 26°, a relative humidity in the range of 40 - 70%, a number of ventilations in the range of 10 - 20 turns/hour, and an illumination time within the range of 12 hours (7.00 - 19:00). They were fed on a commercially available radioactively sterilized solid feed (a product containing 1% of cholesterol, made by Oriental Kobo K.K. and sold under the product code of "RC4") and they were left freely drinking the tap water delivered by an automatic water supplying device.
# The dosage of TMG was set at 800 mg/head/day. The TMG was solved in reagent grade ethanol. The produced solution was sprayed on the 1% cholesterol-containing feed and the wet feed was left drying in the air. A mixed feed was prepared so as to contain 800 mg of TMG per 100 g of the feed. The mixed feed was given to the rabbits every morning at a rate of 100 g/day per head for 12 weeks for the sake of attaining oral consumption of the TMG. The feed for the control group was obtained by spraying ethanol alone on a feed containing 1% cholesterol and air-drying the wet feed. It was given to the rabbits of the control group at a rate of 100 g/day per heat for 12 weeks. […]
# About 10 ml of blood was taken from the heart or the auricular artery of a rabbit experiencing 12 hours' fast prior to the start of the administration and on the 6th and 12th weeks of administration. […] The blood serum was ultracentrifuged by Hatch and Lees method (Hatch, F. T., and Lees, R. S. (1968) Advan, Lipid Res. 6, 1-68) using a centrifuge (the rotor; Beckman 70.1 Ti) made by Beckman and sold under the product code of "L-70") to separate low specific gravity lipoprotein (1.006 < d < 1.063), with the cholesterol amount of the LDL fraction determined by the cholesterol oxidase DASO method and the amount of HDL-cholesterol determined by subjecting the blood serum to the phospho-tungstic acid magnesium salt precipitation method. The amount of TMG was determined by the HPLC method.
# [2] = TMG 800 mg/head/day in feed, 12th week of administration, average ± SE
compound,measurement,setting,value
"Cc1c(C)c2c(c(C)c1O)CCC(C)(C[C@H]1O[C@H](CO)[C@@H](O)[C@H](O)[C@H]1O)O2 (stereo partly drawn) [TMG, 2-(α-D-glucopyranosyl)methyl-2,5,7,8-tetramethyl chroman-6-ol]",occurrence of the atherosclerosis,WHHL rabbit model; TMG 800 mg/head/day for 27 weeks,significantly repressing
same,Surface involvement (%),"WHHL rabbit model; area occupied by deposited lipid in whole area of aorta, TMG 800 mg/head/day in feed, 27th week, control 64.6±3.9, p < 0.05",52.4 ± 4.7 %
same,LDL-TMG,"[1]; amount of TMG in LDL fraction by HPLC, TMG 800 mg/head/day in feed, 12th week of administration",not detected
same,activity of lowering the HDL-cholesterol,[1]; TMG 800 mg/head/day for 12 weeks,no activity
same,HDL-CHO,[1]; [2],33 ± 5 mg/dL
same,LDL-CHO,[1]; [2],620 ± 34 mg/dL
